Here are results for 13 molecules from patent publication US20220390432A1, “METHODS OF CHARACTERIZING AND UTILIZING AGENT-CONDENSATE INTERACTIONS” (Whitehead Institute for Biomedical Research, priority 2019, published 2022).

Data set [1] relates to MED1, BRD4, and POL2 condensates in HCT116 colon cancer cell lines. As to the kind of experiment: Small molecule effects on transcriptional condensates in GFP-tagged HCT116 cells. It is filed as cell-based, human. As to conditions: for effect of antimetabolites on MED1, BRD4 or POL2 condensates: 5 uM; for effect on transcriptional condensates: MED1-GFP, BRD4-GFP, POL2-GFP HCT116. From the text:
HCT116 colon cancer cell lines endogenously tagged with MED1-GFP, BRD4-GFP, POL2-GFP, or HP1a-GFP (Mock), all forming condensates in the nucleus.

The target of data set [2] is T1, MED1 (Homo sapiens, UniProt Q15648).
T1 construct: MED1—amino acids 600-1581; 6xHis (N); made in house; host or cells: LOBSTR cells (E. coli)
T1 sequence (Q15648 600-1581): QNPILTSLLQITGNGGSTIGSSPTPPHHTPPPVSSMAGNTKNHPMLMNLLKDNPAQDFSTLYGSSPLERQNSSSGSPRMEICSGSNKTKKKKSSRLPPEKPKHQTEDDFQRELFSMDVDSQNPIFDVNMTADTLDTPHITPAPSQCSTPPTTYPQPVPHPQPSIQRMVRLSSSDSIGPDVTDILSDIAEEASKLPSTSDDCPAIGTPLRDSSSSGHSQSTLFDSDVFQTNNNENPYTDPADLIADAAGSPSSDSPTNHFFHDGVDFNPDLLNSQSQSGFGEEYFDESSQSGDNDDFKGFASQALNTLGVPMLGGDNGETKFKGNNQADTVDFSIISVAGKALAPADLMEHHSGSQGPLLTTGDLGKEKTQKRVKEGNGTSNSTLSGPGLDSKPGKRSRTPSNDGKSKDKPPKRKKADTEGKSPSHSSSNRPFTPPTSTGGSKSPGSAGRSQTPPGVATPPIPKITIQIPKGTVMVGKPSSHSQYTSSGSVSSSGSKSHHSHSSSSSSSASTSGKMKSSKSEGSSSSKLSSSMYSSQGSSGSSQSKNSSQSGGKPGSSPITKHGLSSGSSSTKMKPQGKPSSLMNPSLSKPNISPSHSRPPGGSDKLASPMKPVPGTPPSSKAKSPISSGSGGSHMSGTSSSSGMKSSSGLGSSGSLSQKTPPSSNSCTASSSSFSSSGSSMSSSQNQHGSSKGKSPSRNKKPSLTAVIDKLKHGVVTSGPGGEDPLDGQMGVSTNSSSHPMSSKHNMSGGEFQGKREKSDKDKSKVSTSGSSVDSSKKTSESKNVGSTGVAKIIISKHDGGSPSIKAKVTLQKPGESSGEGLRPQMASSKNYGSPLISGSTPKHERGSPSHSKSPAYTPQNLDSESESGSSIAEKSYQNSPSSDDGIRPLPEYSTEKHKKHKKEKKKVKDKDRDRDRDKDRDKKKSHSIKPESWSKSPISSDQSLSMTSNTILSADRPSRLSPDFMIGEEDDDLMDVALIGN
In words: In vitro droplet assay, small molecule partitioning into MED1 condensates. The data set is classed as binding. To be noted: confocal fluorescence; Example 2: 125 mM NaCl, 10% PEG, 10 μM protein; fluorescent or fluorescently labeled drug. On the procedure:
Recombinant BFP, GFP, or mCherry fusion proteins were concentrated and desalted to an appropriate protein concentration and 125 mM NaCl using Amicon Ultra centrifugal filters (30K MWCO, Millipore). Recombinant protein was added too. […] The protein solution was immediately loaded onto glass bottom 384 well plate (Cellvis P384-1.5H-N) and imaged with an Andor confocal microscope with a 150× objective. Unless indicated, images presented are of droplets settled on the glass coverslip.
Drug and small molecule concentrations used in the droplet experiments are as follows:
To analyze in vitro droplet experiments, custom Python scripts using the scikit-image package were written to identify droplets and characterize their size, shape and intensity. Droplets were segmented from average images of captured channels on various criteria: (1) an intensity threshold that was three s.d. above the mean of the image; (2) size thresholds (20 pixel minimum droplet size); and (3) a minimum circularity (circularity=4π·areaperimeter2) (circularity=4π·areaperimeter2) of 0.8 (1 being a perfect circle). After segmentation, mean intensity for each droplet was calculated while excluding pixels near the phase interface, and background-corrected by subtracting intensity of dark images of droplet formation buffer only. Droplets identified in the channel of the fluorescent protein from ten independent fields of view were quantified for each experiment. The maximum intensity of signal within the droplets was calculated for each channel, the maximum intensity in the drug channel was termed “maximum drug intensity”. To obtain the intensity of drug or dye alone in the diffuse state (termed “diffuse drug intensity”), the compound was added to droplet formation buffer at same concentration used in the droplet assay. This was then imaged on a confocal fluorescent microscope. The resulting image was processed in FIJI to obtain the fluorescent intensity of the field. To obtain the fluorescent intensity of protein droplets that bleed through in the drug channel (termed “background intensity”) protein droplets were imaged in the fluorescent channel in which the drug fluoresces and processed as above to obtain the average maximum intensity within the droplet across 10 images. The enrichment ratio was obtained by the following formula [(maximum drug intensity)−(background intensity)]/(diffuse drug intensity). The box plots show the distributions of all droplets. Each dot represents an individual droplet.

Data set [3] is described as follows: Droplet formation assay of small molecule alone without any protein. It is filed as physicochemical. To be noted: without any protein added. How it is done: Recombinant BFP, GFP, or mCherry fusion proteins were concentrated and desalted to an appropriate protein concentration and 125 mM NaCl using Amicon Ultra centrifugal filters (30K MWCO, Millipore). […] […] The protein solution was immediately loaded onto glass bottom 384 well plate (Cellvis P384-1.5H-N) and imaged with an Andor confocal microscope with a 150× objective. Unless indicated, images presented are of droplets settled on the glass coverslip.

Data set [4] concerns the target T2, MED1 droplets (Homo sapiens, UniProt Q15648).
T2 construct: MED1—amino acids 600-1581; 6xHis (N); made in house; host or cells: LOBSTR cells (E. coli)
As to the kind of experiment: In vitro droplet drug chase out experiment. It is filed as binding. To be noted: 5 μM cisplatin-TR, 10 μM MED1, unlabeled compound 10, 100 or 500 μM. On the procedure:
For chase-out experiments 5 μM labeled cisplatin-TR was added to a MED1 droplets reaction (10 μM MED1, 50 mM Tris-HCl pH 7.5, 10% glycerol, 1 mM DTT, 10% PEG) in order to form MED1 droplets concentrated with Cisplatin-TR. Unlabeled transplatin or unlabeled cisplatin (vehicle, 10 μM, 100 μM, or 500 μM) were added to the droplet mixture and the amount of labeled cisplatin-TR remaining in the droplet is measured after chase out. 100 μM fluorescent FLTX1 was added to a MED1 droplets reaction (10 μM MED1, 50 mM Tris-HCl pH 7.5, 10% glycerol, 1 mM DTT, 10% PEG) in order to form MED1 droplets concentrated with FLTX1.

Data set [5] has as its target T3, ER/MED1 droplets (Homo sapiens, UniProt P03372).
T3 sequence (P03372 1-595): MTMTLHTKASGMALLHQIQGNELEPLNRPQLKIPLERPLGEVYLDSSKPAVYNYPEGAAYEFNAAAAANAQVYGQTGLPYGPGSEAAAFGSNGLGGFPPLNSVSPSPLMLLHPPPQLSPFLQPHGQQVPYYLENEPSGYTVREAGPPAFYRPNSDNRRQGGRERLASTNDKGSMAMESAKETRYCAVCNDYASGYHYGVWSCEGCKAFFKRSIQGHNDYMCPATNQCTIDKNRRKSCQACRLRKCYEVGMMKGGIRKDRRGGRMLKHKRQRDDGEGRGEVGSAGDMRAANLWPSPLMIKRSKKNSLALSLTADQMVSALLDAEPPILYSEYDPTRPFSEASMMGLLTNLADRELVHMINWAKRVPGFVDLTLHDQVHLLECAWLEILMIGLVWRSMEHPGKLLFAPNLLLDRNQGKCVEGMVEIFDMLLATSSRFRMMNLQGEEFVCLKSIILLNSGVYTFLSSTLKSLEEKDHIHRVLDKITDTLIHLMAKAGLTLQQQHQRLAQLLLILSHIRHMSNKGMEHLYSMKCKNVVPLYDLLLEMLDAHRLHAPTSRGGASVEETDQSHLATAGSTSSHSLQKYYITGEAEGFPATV
As to the kind of experiment: Peptides added to ER/MED1 droplets. The data set is classed as biochemical. To be noted: for effect of peptide on ER partitioning / ER/MED1 droplet formation: in the presence of estrogen. On the procedure:
FIG. 24 illustrates ER/MED1 droplets contacted with a fluorescent peptide (left side).
A number of condensate components are known to form in vitro condensates. In general, one or more condensate components are added to solutions (e.g. aqueous solution) at varying concentrations in the presence of a salt (e.g., NaCl) and, optionally, a crowding agent (e.g., polyethylene glycol, Ficoll). See, e.g., Boija et al, Cell, vol. 175, no. 7, pp. 1842-1855 (2018); Sabari et al., Science, vol. 361, pp. 361-371 (2018); Bergeron-Sandoval et al., Cell, vol. 165, no. 5, pp. 1067-1079 (2016). May 19; 165(5):1067-1079, the relevant methods of which are specifically incorporated herein. In some embodiments, in vitro MED1 containing condensates are formed by adding about 10 μM of MED1 to a solution containing […] of NaCl and 10% PEG (e.g., PEG-8000).

Data set [6] deals with T4, MED1 intrinsically disordered region, amino acids 600-1581, recombinant fluorescent fusion protein (human, UniProt Q15648 600-1581).
T4 construct: Scaffold protein of the in vitro droplets; also called MED1-IDR; MED1 IDR; not shown: N-terminal 6xHIS plus fluorescent protein (BFP, mEGFP or mCherry)
T4 sequence (Q15648 600-1581 limits assumed): as the sequence (Q15648 600-1581) above
In words: in vitro droplet assay, peptide added to ER/MED1 droplets.

No end group written: not given here.

T2 sequence (Q15648 600-1581): as the sequence (Q15648 600-1581) above

`Nc1ncn([C@@H]2O[C@H](CO)[C@@H](O)[C@H]2O)c(=O)n1` [5-Aza]: in data set [1], the “effect of antimetabolites on MED1, BRD4 or POL2 condensates” value is reported as “no effect”.

As to `O=c1[nH]cc(F)c(=O)[nH]1` [5-FU, fluorouracil], in data set [1], the “effect of antimetabolites on MED1, BRD4 or POL2 condensates” value was “no effect”.

Regarding `CNC(=O)Nc1ccc2c(c1)CC[C@@]21OC(=O)N(CC(=O)N(Cc2ccc(F)cc2)[C@@H](C)C(F)(F)F)C1=O` [A485], in data set [1], the “effect on transcriptional condensates” value was “genomic release and consolidation of condensates”.

For `CC(C)C[C@H](NC(=O)[C@H](Cc1ccccc1)NC(=O)c1cnccn1)B(O)O` [Bortezomib], the “effect on transcriptional condensates” value in data set [1] is recorded as “global dissolution of condensates”.

Regarding `COc1cccc2c1C(=O)c1c(O)c3c(c(O)c1C2=O)C[C@@](O)(C(C)=O)C[C@@H]3O[C@H]1C[C@H](N)[C@H](O)[C@H](C)O1` [Daunorubicin], the “partitioning / incorporation into MED1 droplets” value in data set [2] was “immediately incorporate into MED1 droplets”. Further, the figures for the “effect on transcriptional condensates” value in data set [1] and in data set [1] (listed as daunorubicin) were “global dissolution of condensates” and “cause condensate dissolution”, respectively.

Regarding `CN(C)C/C=C/C(=O)Nc1ccc(C(=O)Nc2cccc(Nc3ncc(Cl)c(-c4c[nH]c5ccccc45)n3)c2)cc1` [THZ1], the “partitioning / incorporation into MED1 droplets” value in data set [2] is on record as “concentrated preferentially in MED1 droplets”. For the same molecule, the “effect on transcriptional condensates” value in data set [1] was “global dissolution of condensates”. Further, the “droplet formation of small molecule alone” value in data set [3] is recorded as “diffuse fluorescent signal”.

With `N.N.[Cl][Pt+2][Cl]` [Transplatin, transplatin], the “chase out of cisplatin-TR from MED1 droplets by unlabeled compound” value in data set [4] is listed as “not able to chase out cisplatin-TR”; in data set [4] (listed as isomer of cisplatin), “did not exhibit the same behavior”.

For the molecule `N#CC(=C(/N)Sc1ccccc1N)/C(C#N)=C(/N)Sc1ccccc1N` [U0216], the “effect on transcriptional condensates” value in data set [1] is “eviction of some condensate components”.

For the molecule `COc1cc(/C=C/C(=O)CC(=O)/C=C/c2ccc(O)c(OC)c2)ccc1O` [curcumin], the “partitioning / incorporation into MED1 droplets” value in data set [2] is recorded as “immediately incorporate into MED1 droplets”. Further, in data set [1], the “effect on transcriptional condensates” value is “cause condensate dissolution”.

As to “CTD: RNA polymerase II CTD repeat YSPTSPS peptide”, the “effect of peptide on ER partitioning / ER/MED1 droplet formation” value in data set [5] is reported as “did not have an effect”.

With QNPILTSLLQITG [LXXLL peptide], the “incorporation of peptide into MED1 droplets” value in data set [5] (ER/MED1 droplets) was “incorporated into MED1 droplets”. For the same molecule, the “effect of peptide on ER partitioning / ER/MED1 droplet formation” value in data set [5] is “decrease in partitioning of ER into the MED1 droplet”.

For Texas Red, in data set [2], the “partitioning / incorporation into MED1 droplets” value was “Neither of the two dyes used to visualized drugs were enriched”.

B1: LXXLL peptide (QNPILTSLLQITG; SEQ ID NO: 1) (peptide)
peptide: QNPILTSLLQITG
modifications: also: fluorescent label, type and position not given here
notes: also called fluorescent peptide
For B1, the binding result in data set [6] is on record as “binds”.
